In the experiment the test system is EA.hy926 cells. Put plainly: Protective effect against H2O2-induced oxidative damage, MTT assay. The experiment is classed as cell-based, human. The note with it: for EC50: protection against H2O2-induced damage (400 µmol·L^−1, 4 h), n = 3, mean ± SD. How it is done:
Hydrogen peroxide (H2O2), a small molecule and functions as oxidative stress and a second messenger which contributes to cell damage or death, could directly induce inflammation in several cell lines. H2O2-induced cell damage is a commonly used model for antioxidant activity evaluation. […] Thus, the concentration of 400 µmol·L^−1 at 4 h was chosen as the model.
Compound SC2 stock solutions were prepared in DMSO. The stock solutions were diluted with FBS free DMEM to different target concentrations (DMSO concentrations ≤ 0.5% v:v). Cells (100 μL, 2 × 10^5 cells∙mL^−1) were seeded on 96-well plates and cultured for 24 h. The medium was then replaced with fresh media containing H2O2 with different concentrations (0, 100, 200, 300, 400, 500, and 600 μmol·L^−1 in FBS free DMEM) and compound SC2 (50, 40, 30, 20, 10 µmol·L^−1), which were transferred to the incubator and cultured for additional time (2, 4, and 6 h). The medium was then replaced with 100 μL of FBS free DMEM and MTT (10 μL, 5 mg·mL^−1 in PBS) and after 4 h the medium was replaced with DMSO (100 μL). A microplate reader (SpectraMaxPlus384, Molecular Devices, United States) was used to record the absorbance at 490 nm for each well of the plates. Cell viability was measured via MTT assay. Survival rate (%) = (Asample group/Acontrol group) × 100%.
Cells (100 μL, 2 × 10^5 cells·mL^−1) were seeded in 96-well plates for 24 h. Cells were treated with different groups and cell viability was measured via MTT assay. The protection rates to oxidative damage were determined and EC50 values were calculated. The protection rates to cells were calculated using the following formula: Protection rate (%) = (Apretreatment group − Amodel group)/(Acontrol group − Amodel group) × 100%.

The structures appear in SMILES notation.

On to `CC(C)(C)c1ccc(C(=O)c2c(Cl)cc(O)c(O)c2O)cc1` [SC2], for which it took 6.25 ± 0.415 nM to reach a half-maximal effect (EC50). The “protection from H2O2 induced cell damage” value (5 µmol·L^−1 compound, four pre-chosen H2O2 treatments) was “protects the cells from H2O2 induced cell damage”. For the same compound, under “Homo sapiens, EA.hy 926, 4 h”, the concentration for a half-maximal effect (EC50) (usually the concentration at which the effect is half-maximal) stood at 6.25 ± 0.415 nM.

In turn, `CC(C)Cc1ccc(C(=O)c2c(Br)cc(O)c(O)c2O)cc1` [YB2] displayed an EC50 (Homo sapiens, EA.hy 926, 4 h) of 418 ± 24.6 nM. Moreover, for the setting “statistical comparison”, the “protection rate compared with positive controls (fenofibrate and quereetin)” value is “no significant difference”.

For the setting “Homo sapiens, EA.hy 926, 4 h”, `CCCCc1ccc(C(=O)c2c(Br)cc(O)c(O)c2O)cc1` [DB2] registered a concentration for a half-maximal effect (EC50) of 1360 ± 463 nM.

For the origin of these results see paper PMC8587043, “An Investigation into the Interaction between Double Hydroxide-Based Antioxidant Benzophenone Derivatives and Cyclooxygenase 2” (Molecules, 2021).
